The source of these data is patent US9232798B2, “Pesticidal composition and its use” (SUMITOMO CHEMICAL COMPANY, LIMITED, priority 2010, dated 2016).

The assay has as its system Rhizoctonia solani. In words: Soybean seed treatment test against Rhizoctonia solani in contaminated soil (Test Example). It counts as in vivo, Rhizoctonia solani on soybean (variety: Natto shoryu). The following applies: carboxamide compound alone 0.2 g/100 kg of seeds (no fipronil), soybean grown 20 days in soil contaminated by Rhizoctonia solani, from disease severity versus non-treated plot. How it is done:
A cyclohexanone solution (100 microL) containing prescribed amount (weight) of a test compound was applied on seeds of soybean (variety: Natto shoryu) (10 g) by using a rotary apparatus for seed treatment (Seed dresser, manufactured by Hans-Ulrich Hege GmbH).
One day after the treatment, plastic pot was filled with soil contaminated by Rhizoctonia solani, and the seeds treated with the test compounds were seeded in the soil and cultivated in a glass-greenhouse for 20 days (hereinafter referred to as “treated plot”).
Thereafter, the presence of disease caused by Rhizoctonia solani in the young plants which germinated from each seed was observed and disease severity was calculated according to the following calculation formula (1).
On the other hand, seeds of soybean which were not treated as above were cultivated in the same way as above (hereinafter referred to as “non-treated plot”) and the disease severity in “non-treated plot” was calculated in the same way as above “treated plot”. On the basis of the above disease severity in “treated plot” and the “non-treated plot”, efficacy in “treated plot” was evaluated according to the following calculation formula (2). […]

Take `CC1CC(C)(C)c2cccc(NC(=O)c3cn(C)nc3C(F)F)c21` (stereo not shown) [carboxamide compound (1)]: the “efficacy (%)” value was determined as 42.1%.
